From article PMC6573034 (Nature Communications, 2019)

Experiments:
[1] = tested on: MCT3 (SLC16A8); details: MCT3, L-lactate; cited from earlier work
[2] = biological target: T1, SfMCT (Syntrophobacter fumaroxidans, UniProt A0LNN5); assay: Micro pH electrode-based transport assay, SfMCT-expressing E. coli JA202; assay type: cell-based; details: 10 mM compound (pH 6.5) added to bacterial suspension pH 6.7
T1 construct: expressed in transfected cells; host or cells: E. coli JA202 (MC4100 glcA::cat lldP::kan), plasmid pEXT20-SfMCT-3C-10His
T1 sequence (A0LNN5 1-412): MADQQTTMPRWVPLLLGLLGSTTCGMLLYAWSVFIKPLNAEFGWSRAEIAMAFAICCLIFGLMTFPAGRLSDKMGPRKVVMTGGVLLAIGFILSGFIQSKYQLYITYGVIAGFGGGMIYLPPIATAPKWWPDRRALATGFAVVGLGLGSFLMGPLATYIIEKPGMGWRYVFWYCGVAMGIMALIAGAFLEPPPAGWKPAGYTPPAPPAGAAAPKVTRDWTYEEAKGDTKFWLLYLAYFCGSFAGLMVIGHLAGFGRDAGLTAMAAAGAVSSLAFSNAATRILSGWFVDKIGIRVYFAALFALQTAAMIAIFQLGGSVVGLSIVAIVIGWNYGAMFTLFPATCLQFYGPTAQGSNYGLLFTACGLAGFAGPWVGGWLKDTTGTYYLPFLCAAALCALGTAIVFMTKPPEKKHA
Procedure: A measuring set up as previously reported[18] was used for micro pH electrode-based transport measurements. SfMCT was expressed in E. coli JA202 (MC4100 glcA::cat lldP::kan)[15] as described for uptake experiments. After expression, bacteria were pelleted (5,200 × g, 10 min, room temperature), washed twice in assay solution (250 mM KCl, 1 mM MgSO4, 2 mM CaCl2; 5,200 × g, 10 min, room temperature) and finally resuspended in assay solution to a bacterial density of OD600 15. Compounds that were assayed for proton-coupled transport were dissolved in assay solution and the pH was adjusted to 6.5. 800 µl of bacteria suspension were transferred into a 2 ml reaction tube (Eppendorf) and the pH value of the bacterial suspension (extracellular medium) was measured using a micro pH electrode with integrated temperature sensor (InLab Micro Pro, Mettler Toledo) under constant stirring. The pH of the bacterial suspension was adjusted to pH 6.7 using potassium hydroxide and hydrochloric acid. The SevenCompact pH-meter (Mettler Toledo), together with LabX direct pH 2.3 software (Mettler Toledo), were used for automatic recording in 15 s intervals. Measurements were initiated by adding 10 mM of the corresponding compound to the bacterial suspension. All experiments were performed at 24 °C.

[3] = tested on: vector-transformed E. coli JA202; assay: Uptake of radioligands into vector-transformed bacteria; assay type: cell-based
Procedure: The cultures were grown at 37 °C and 180 r.p.m. in an incubator shaker (Multitron, Infors HT). Protein expression was induced at OD600 ~0.5 by addition of IPTG to a final concentration of 0.25 mM. After 4 h, bacteria were pelleted (5,200 × g, 10 min, room temperature) and resuspended in uptake buffer (20 mM Bis-Tris propane-HCl (pH 6.7), 250 mM KCl) to a bacteria density of OD600 12. […] Furthermore, [3-3 H] propionic acid sodium salt ([^3H]propionate, American Radiolabeled Chemicals, specific activity 30 Ci/mmol), n-[2,3-3 H] butyric acid sodium salt ([^3H]butyrate, American Radiolabeled Chemicals, specific activity 120 Ci/mmol), and [1–14 C] pyruvic acid sodium salt ([^14C]pyruvate, specific activity 0.055 Ci/mmol American Radiolabeled Chemicals) were also used for transport experiments. […] Uptake experiments were performed in 2 ml reaction tubes (Eppendorf) at 30 °C under agitation (1,000 r.p.m., Thermomixer compact, Eppendorf). […] Bacteria were immediately pelleted by centrifugation (21,000 × g, 4 min, room temperature) and washed two times with 900 μl stop buffer. Finally, bacteria were lyzed in 50 μl 5% (w/v) sodium dodecylsulfate and transferred into a white 96-well plate (Optiplate, PerkinElmer). 150 µl of scintillation cocktail (MicroScint 40, PerkinElmer) were added before measuring each reaction for 2 min with a scintillation counter (TopCount NXT, PerkinElmer). For data analysis, the signal of the empty vector was subtracted from the transporter signal. […] Cpm values of each experiment were normalized with respect to the determined upper plateau value, i.e., the fitted upper plateau value corresponds to 100%. The arithmetic average of three independent experiments was calculated. Three independent and normalized pH-dependence curves were then averaged. For data analysis Prism6 (GraphPad Software) was used. The expression of SfMCT variants in E. coli JA202 (MC4100 glcA::cat lldP::kan)[15] was verified by Western blotting. Equal amounts of bacteria expressing SfMCT variants were loaded on 14% SDS/polyacrylamide gels. His-tagged transporters were detected using an anti-His5 (Qiagen, catalogue number 34660, primary antibody) at a dilution of 1:3,000 and a goat anti-mouse IgG (H + L) HRP conjugate antibody (Biorad, catalogue number 172-1011, secondary antibody) at a dilution of 1:2,500.

C[C@H](O)C(=O)O [L-lactate]
Km [1]: ~6 mM
proton-coupled transport, change of extracellular pH (in words) [2]: immediate pH increase
Uptake of radioligand by vector (cpm) ([3]; 0.1 µCi radiolabeled monocarboxylate, vector-transformed bacteria): 1768.33 cpm
Uptake of [14C]L-lactate by vector (cpm) ([3]; Time 5 min): 384.333 cpm
Uptake of [14C]L-lactate by vector (cpm) ([3]; Time 10 min): 605.333 cpm
Uptake of [14C]L-lactate by vector (cpm) ([3]; Time 20 min): 1203 cpm
Uptake of [14C]L-lactate by vector (cpm) ([3]; Time 30 min): 1731 cpm
Uptake of [14C]L-lactate by vector (cpm) ([3]; Time 40 min): 2474 cpm
Uptake of [14C]L-lactate by vector (cpm) ([3]; Time 50 min): 3128.67 cpm
Uptake of [14C]L-lactate by vector (cpm) ([3]; Time 60 min): 3938.67 cpm
Uptake of [14C]L-lactate by vector (cpm) ([3]; Time 75 min): 5158 cpm
Uptake of [14C]L-lactate by vector (cpm) ([3]; Time 90 min): 7311.67 cpm
